Results reported in publication PMC12974487, “Inhibition of FicD-mediated AMPylation and deAMPylation by isoprenoid diphosphates” (Proceedings of the National Academy of Sciences of the …, 2026).
Residue numbers refer to the chain shown, from its start.

Legend:
FicD^E234G = target: T1, FicD^E234G (Homo sapiens, UniProt Q9BVA6, E234G); test: MIDAS metabolite screen, FicD^E234G; assay type: binding; details: cutoff Q < 0.05 and |Log2 corrected fold change| > 2, metabolites 5 µM
T1 construct: soluble ER luminal domain (residues 105 to 458) of wild-type human FicD and three mutants; 6xHis-Sumo (N, cleaved yes); made in house; host or cells: Rosetta(DE3) E. coli
T1 sequence (Q9BVA6 105-458 E234G): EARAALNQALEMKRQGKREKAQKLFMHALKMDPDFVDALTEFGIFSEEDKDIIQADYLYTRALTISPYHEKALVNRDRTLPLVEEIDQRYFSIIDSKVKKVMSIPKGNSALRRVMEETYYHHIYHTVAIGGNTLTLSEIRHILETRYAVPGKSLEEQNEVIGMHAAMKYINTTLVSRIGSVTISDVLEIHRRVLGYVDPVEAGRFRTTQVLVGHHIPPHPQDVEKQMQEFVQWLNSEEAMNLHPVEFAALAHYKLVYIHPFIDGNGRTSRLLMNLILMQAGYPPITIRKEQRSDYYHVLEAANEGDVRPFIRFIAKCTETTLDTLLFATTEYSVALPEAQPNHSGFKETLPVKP

FicD^L258D [1] = target: T2, FicD^L258D (Homo sapiens, UniProt Q9BVA6, L258D); test: Differential scanning fluorimetry (DSF) thermal shift with FicD^L258D; assay type: binding
T2 construct: soluble ER luminal domain (residues 105 to 458) of wild-type human FicD and three mutants; 6xHis-Sumo (N, cleaved yes); made in house; host or cells: Rosetta(DE3) E. coli
T2 sequence (Q9BVA6 105-458 L258D): T1 sequence (Q9BVA6 105-458 E234G) with G130E, L154D
Experimental: Differential Scanning Fluorimetry
Thermal shift assays were performed in Biorad CfX384 Touch Real-Time PCR Detection System […]
Reactions contained 50mM HEPES pH 7.4, 200mM NaCl, 200mM KCl, 200uM DTT, 5X Invitrogen Sypro Orange (Cat no. S6650), 8-9μM protein, and indicated nucleotide, cofactor, or small molecule in a total volume of 20uL. For every experiment ‘no protein’ controls were also included with the same reaction conditions. All reactions were performed in technical triplicates. Sealed plates containing reaction mixes were centrifuged for 1-5 min at 1000 RPM prior to temperature scanning (FRET channel), which was performed from 6°C […]
DSF data was analyzed with traditional methods automated in a Python package (https://pypi.org/project/instawell/). Briefly, for each temperature, the RFU values of technical triplicates are averaged. For each timepoint, the background fluorescence was subtracted using the RFU values of the ‘no protein’ control. […]
calculated. The melting temperature (Tm) is defined as the first derivative peak value. Data

FicD^WT [2] = target: T3, FicD^WT (Homo sapiens, UniProt Q9BVA6); test: In vitro AMPylation of Δ26hBiP^T229A by FicD^WT (Western blot); assay type: biochemical; details: 100 μM metabolite, 500 μM ATP, 5 mM MgCl2
T3 construct: soluble ER luminal domain (residues 105 to 458) of wild-type human FicD; 6xHis-Sumo (N, cleaved yes); made in house; host or cells: Rosetta(DE3) E. coli
T3 sequence (Q9BVA6 105-458): T1 sequence (Q9BVA6 105-458 E234G) with G130E
Excerpt: (§1) We next sought to assess the effects of FPP, GPP, and isoprenoid analogues on FicD activity. To accurately judge the effects of small molecules on FicD AMPylation activity, we used the ATPase defective BiP^T229A mutant as substrate ([22], [49], [50]). Loss of ATP hydrolysis by the BiP mutant ensures: 1. conformational homogeneity of the BiP protein substrate; 2. lack of BiP competition for the ATP substrate; and 3. no production of ADP, a competitive inhibitor for ATP. In addition, we deleted the first 25 amino acids of BiP for ease with its purification and solubility. […]
For AMPylation assays with FicD and BiP, Δ104FicDWT and Δ26hBiPT229A were combined at a ratio
of 1:80 in buffer containing 25mM HEPES pH 7.4, 100mM KCl, 5mM MgCl2, 500μM ATP, 1mM
DTT, and small molecule where indicated. Assays with Δ104FicDWT were incubated for 1 hour.
the amount of FicD as in reactions containing FicDWT and were incubated at 37C for 4.5 hours. […]

FicD^WT [3] = target: T3, FicD^WT; test: In vitro deAMPylation of Δ26hBiP^T229A-AMP by FicD^WT (Western blot); assay type: biochemical; details: 100 μM metabolite, 5 mM MgCl2
Excerpt: as §1
For deAMPylation assays with FicD and BiP, Δ26hBiPT229A was in-vitro AMPylated by […]
5mM MgCl2, 500uM ATP, 0.5% CHAPS, 1mM DTT. After one hour of incubation at 30-37C, the entire reaction mix was transferred into an Amicon 0.5mL 50kDa MWCO concentrator (cat no.
7.4/150mM NaCl/10% glycerol/1mM DTT was added to the concentrated AMPylation reaction and then spun down again at 14,000 x g at 4C for 5-10 minutes. This step was repeated four times to buffer exchange AMPylated Δ26hBiPT229A.
Δ104hFicDWT and Δ26hBiPT229A-AMP were combined at a ratio of 1:80 in buffer containing 25mM HEPES pH 7.4, 100mM KCl, 5mM MgCl2, 1mM DTT and the indicated small molecule where applicable. Reactions were incubated at 37C for 1 hour and stopped by the addition EDTA. 5X SDS sample buffer (250mM Tris pH 6.8, 10% Lithium dodecyl sulfate, 50% glycerol, 50mM DTT, 0.05% Bromophenol blue) was then added to the reactions and reactions were heated for 5 minutes at […]

FicD^WT [4] = target: T3, FicD^WT; test: MIDAS equilibrium dialysis/mass spectrometry metabolite screen, FicD^WT; assay type: binding; details: cutoff Q < 0.05 and |Log2 corrected fold change| > 2, metabolites 5 µM
FicD^L258D [5] = target: T2, FicD^L258D; test: MIDAS metabolite screen, FicD^L258D; assay type: binding; details: cutoff Q < 0.05 and |Log2 corrected fold change| > 2, metabolites 5 µM
Excerpt: To identify small-molecule metabolite interactions with FicD, we applied an unbiased high-throughput screening approach known as MIDAS ([44]). Given the high concentrations of protein required for MIDAS screening, we purified the soluble ER luminal domain (residues 105 to 458) of wild-type human FicD and three mutants FicD^E234G, FicD^L258D, and FicD^H363A for screening (Fig. 1A). These mutants were selected based on their well-established biochemical features ([23], [24], [31]). All three are predicted to enhance detection of protein–metabolite interactions (PMIs) relative to FicD^WT through increased affinity for nucleotide substrates (FicD^E234G), improved solubility (FicD^L258D), and loss of catalytic turnover (FicD^H363A) (Fig. 1A). To decrease the potential for nonspecific small-molecule binding, we ensured the purity of our FicD proteins (SI Appendix, Fig. S1 A and B). As reported by other investigators ([24], [31]), we observe an increase in elution volume of the FicD^L258D mutant, consistent with its monomerization (SI Appendix, Fig. S1C).
Out of the 602 naturally occurring human metabolites in the MIDAS library, we applied a significance cutoff (q value < 0.05) to identify 12 PMIs with a Log2 (corrected fold change) of >2 and two PMIs with a Log2 (corrected fold change) <-2 in the FicD^WT screen (Fig. 1B and SI Appendix, Table S2). Hits were additionally triaged based on detection of multiple adducts of the metabolite in a single dataset (FPP and […] in Fig. 1B) and identification of the same metabolites across three or more of the FicD construct screens (Fig. 1C). Three chemical classes passed this initial triage: adenosine nucleotides, isoprenoid diphosphates, and thyroid hormone intermediates (Fig. 1 B and C and SI Appendix, Tables S2–S5).
22°C. Induced cultures were then harvested by centrifugation at 8000G for 15 minutes at 4°C and […]
Bacterial pellets were resuspended in 30-50mL of 50mM Tris pH 7.4/150mM NaCl/10% glycerol with one Roche cOmplete EDTA-Free Protease inhibitor cocktail tablet (cat no. COEDTAF-RO).
Triton-X100 to a final concentration of 0.2%, Chicken-egg lysozyme to a final concentration of 0.4ug/mL, and 2-5uL of Millipore Benzonase Nuclease (cat no. 70664) were added to bacterial suspension prior to sonication at 40-50% amplitude for 1-3 minutes in pulses of 5 seconds on and 30 seconds off on ice with a Sonics VCX 750 Ultrasonicator. Bacterial lysate was then clarified by centrifugation at 30,000 x g for 30 minutes at 4°C.
Clarified lysate was rotated with Qiagen NiNTA agarose beads (cat no. 30210) for 1-2 hours at 4°C. The beads were then transferred to a 15mL conical vial, resuspended in 10-15mL wash buffer (50mM Tris pH 7.4/150mM NaCl/10% glycerol/0.2% Triton-X 100/10mM imidazole), and spun down at 1000G for 1 minute at 4°C, after which the supernatant was aspirated from the beads. This washing step was repeated 2-4 times to rinse bacterial lysate from the beads prior to on-column washing. The beads were then transferred to BioRad Econopac 20mL bed volume column (cat no.
7321010) and washed with 10-15mL of wash buffer (repeated at least three times), 10mL of ATP wash (50mM Tris pH 7.4/300mM KCl/10mM MgCl2/500uM ATP, repeated once), and finally with 10-15mL wash buffer without Triton-X 100 (repeated at least three times). Protein was eluted in 500μL-1mL elution buffer (50mM Tris pH 7.5/150mM NaCl/10% glycerol/0.5% CHAPS). […]

Compound | MIDAS protein-metabolite interaction (enrichment/depletion) (FicD^E234G) | binding to FicD^L258D by DSF (FicD^L258D [1]; absence of MgCl2) | binding to FicD^L258D by DSF (FicD^L258D [1]; presence of 5 mM MgCl2) | inhibition of AMPylation of Δ26hBiP^T229A by FicD^WT (FicD^WT [2]) | inhibition of deAMPylation activity of FicD^WT (FicD^WT [3]) | MIDAS protein-metabolite interaction (enrichment/depletion) (FicD^WT [4]) | MIDAS protein-metabolite interaction (enrichment/depletion) (FicD^L258D [5]) | maximal Tm shift at saturating ligand concentration (FicD^L258D [1]; FicD^L258D, 5 mM MgCl2) | EC50 (FicD^L258D [1]; FicD^L258D, 5 mM MgCl2, read-out: EC50 of DSF dose-response (ΔTm)) [µM]
Nc1ncnc2c1ncn2[C@@H]1O[C@H](COP(=O)(O)OP(=O)(O)OP(=O)(O)O)[C@@H](O)[C@H]1O [ATP, adenosine triphosphate] | did not pass the significance cutoff | did not bind | did not show saturation | – | – | – | – | – | –
CC(O)(CCOP(=O)(O)OP(=O)(O)O)CC(=O)O (centres unmarked) [MVAPP, mevalonate-pyrophosphate] | – | – | did not bind | did not | did not affect | – | – | – | –
Nc1ncnc2c1ncn2[C@H]1C[C@H](O)[C@@H](COP(=O)(O)OP(=O)(O)OP(=O)(O)O)O1 [dATP] | significantly enriched | did not bind | binding | – | – | significantly enriched | did not pass the significance cutoff | ~ 7 °C | 530
O=CC(=O)O [glyoxylic acid] | – | – | – | – | – | significantly depleted | – | – | –

The remaining lines, values ahead:

MIDAS protein-metabolite interaction (enrichment/depletion) (FicD^E234G) | binding to FicD^L258D by DSF (FicD^L258D [1]; absence of MgCl2) | binding to FicD^L258D by DSF (FicD^L258D [1]; presence of 5 mM MgCl2) | inhibition of AMPylation of Δ26hBiP^T229A by FicD^WT (FicD^WT [2]) | inhibition of deAMPylation activity of FicD^WT (FicD^WT [3]) | MIDAS protein-metabolite interaction (enrichment/depletion) (FicD^WT [4]) | MIDAS protein-metabolite interaction (enrichment/depletion) (FicD^L258D [5]) | maximal Tm shift at saturating ligand concentration (FicD^L258D [1]; FicD^L258D, 5 mM MgCl2) | EC50 (FicD^L258D [1]; FicD^L258D, 5 mM MgCl2, read-out: EC50 of DSF dose-response (ΔTm)) [µM] | Compound
– | – | did not bind | did not | did not affect | – | – | – | – | CC(C)=CCOP(=O)(O)OP(=O)(O)O [DMAPP, dimethylallyl-pyrophosphate]
– | – | did not bind | did not | did not affect | – | – | – | – | CC(C)=CCC/C(C)=C\CC/C(C)=C\COP(=O)(O)O [FMP, farnesyl-monophosphate]
– | – | did not bind | did not | did not affect | – | – | – | – | CC(C)=CCC/C(C)=C/COP(=O)(O)O [GMP, geranyl-monophosphate]
– | – | did not bind | did not | did not affect | – | – | – | – | CC(C)=CCC/C(C)=C/CC/C(C)=C/CO [farnesol]
– | – | did not bind | did not | did not affect | – | – | – | – | CC(C)=CCC/C(C)=C/CO [geraniol]
